In BindingDB's records for doi:10.1016/s0960-894x(00)00026-3 (Universit&#224, 2000):
pKi: −log10 of the molar value.

Assay: Inhibition of Clostridium histolyticum collagenase using a linear regression program

SMILES	pKi
CC(C(=O)NO)N(Cc1ccc([N+](=O)[O-])cc1)S(=O)(=O)c1ccc([N+](=O)[O-])cc1 (stereo not given) [N-Hydroxy-2-[(4-nitro-benzenesulfonyl)-(4-nitro-benzyl)-amino]-propionamide]	5.00
Cc1cc(C)c(S(=O)(=O)N(Cc2ccc([N+](=O)[O-])cc2)C(C)C(=O)NO)c(C)c1 (stereo not given) [N-Hydroxy-2-[(4-nitro-benzyl)-(2,4,6-trimethyl-benzenesulfonyl)-amino]-propionamide]	4.77
CC(C(=O)NO)N(Cc1ccc([N+](=O)[O-])cc1)S(=O)(=O)c1cccc(C(F)(F)F)c1 (stereo not given) [N-Hydroxy-2-[(4-nitro-benzyl)-(3-trifluoromethyl-benzenesulfonyl)-amino]-propionamide]	5.22
CC(C(=O)NO)N(Cc1ccc([N+](=O)[O-])cc1)Sc1ccc([N+](=O)[O-])cc1 (stereo not given) [N-Hydroxy-2-[(4-nitro-benzyl)-(4-nitro-phenylsulfanyl)-amino]-propionamide]	4.96
CC(C(=O)NO)N(Cc1ccc([N+](=O)[O-])cc1)S(=O)(=O)c1cccc2cccnc12 (stereo not given) [N-Hydroxy-2-[(4-nitro-benzyl)-(quinoline-8-sulfonyl)-amino]-propionamide]	5.10
CC(C(=O)NO)N(Cc1ccc([N+](=O)[O-])cc1)S(=O)(=O)c1cccs1 (stereo not given) [N-Hydroxy-2-[(4-nitro-benzyl)-(thiophene-2-sulfonyl)-amino]-propionamide]	4.96
Cc1ccc(S(=O)(=O)N(Cc2ccc([N+](=O)[O-])cc2)C(C)C(=O)NO)cc1 (stereo not given) [N-Hydroxy-2-[(4-nitro-benzyl)-(toluene-4-sulfonyl)-amino]-propionamide]	4.44
CC(C(=O)NO)N(Cc1ccc([N+](=O)[O-])cc1)S(=O)(=O)c1c(F)c(F)c(F)c(F)c1F (stereo not given) [N-Hydroxy-2-[(4-nitro-benzyl)-pentafluorobenzenesulfonyl-amino]-propionamide]	5.30
CC(C(=O)NO)N(Cc1ccc([N+](=O)[O-])cc1)S(=O)(=O)Cc1ccccc1 (stereo not given) [N-Hydroxy-2-[(4-nitro-benzyl)-phenylmethanesulfonyl-amino]-propionamide]	4.30
CC(C(=O)NO)N(Cc1ccc([N+](=O)[O-])cc1)S(=O)(=O)C(Cl)(Cl)Cl (stereo not given) [N-Hydroxy-2-[(4-nitro-benzyl)-trichloromethanesulfonyl-amino]-propionamide]	4.28
CC(C(=O)NO)N(Cc1ccc([N+](=O)[O-])cc1)S(=O)(=O)C(F)(F)F (stereo not given) [N-Hydroxy-2-[(4-nitro-benzyl)-trifluoromethanesulfonyl-amino]-propionamide]	4.12
CC(C(=O)NO)N(Cc1ccc([N+](=O)[O-])cc1)S(=O)(=O)c1cccc2ccccc12 (stereo not given) [N-Hydroxy-2-[(naphthalene-1-sulfonyl)-(4-nitro-benzyl)-amino]-propionamide]	5.15
CC(C(=O)NO)N(Cc1ccc([N+](=O)[O-])cc1)S(=O)(=O)c1ccc2ccccc2c1 (stereo not given) [N-Hydroxy-2-[(naphthalene-2-sulfonyl)-(4-nitro-benzyl)-amino]-propionamide]	5.10
CC(C(=O)NO)N(Cc1ccc([N+](=O)[O-])cc1)S(C)(=O)=O (stereo not given) [N-Hydroxy-2-[methanesulfonyl-(4-nitro-benzyl)-amino]-propionamide]	4.12
Cc1ccccc1S(=O)(=O)NC(=O)N(Cc1ccc([N+](=O)[O-])cc1)C(C)C(=O)NO (stereo not given) [N-hydroxy-2-[({[(2-methylphenyl)sulfonyl]amino}carbonyl)(4-nitrobenzyl)amino]propanamide]	5.10
Cc1ccc(S(=O)(=O)NC(=O)N(Cc2ccc([N+](=O)[O-])cc2)C(C)C(=O)NO)cc1 (stereo not given) [N-hydroxy-2-[({[(4-methylphenyl)sulfonyl]amino}carbonyl)(4-nitrobenzyl)amino]propanamide]	4.92
CC(C(=O)NO)N(Cc1ccc([N+](=O)[O-])cc1)S(=O)(=O)c1cccc(NC(=O)OC(C)(C)C)c1 (stereo not given) [{3-[(1-Hydroxycarbamoyl-ethyl)-(4-nitro-benzyl)-sulfamoyl]-phenyl}-carbamic acid tert-butyl ester]	5.10
CC(C(=O)NO)N(Cc1ccc([N+](=O)[O-])cc1)S(=O)(=O)c1ccc(NC(=O)OC(C)(C)C)cc1 (stereo not given) [{4-[(1-Hydroxycarbamoyl-ethyl)-(4-nitro-benzyl)-sulfamoyl]-phenyl}-carbamic acid tert-butyl ester]	5.00
COc1ccc(S(=O)(=O)N(Cc2ccc([N+](=O)[O-])cc2)C(C)C(=O)NO)cc1NC(=O)OC(C)(C)C (stereo not given) [{5-[(1-Hydroxycarbamoyl-ethyl)-(4-nitro-benzyl)-sulfamoyl]-2-methoxy-phenyl}-carbamic acid tert-butyl ester]	5.10

Assay: Inhibition of Clostridium histolyticum collagenase (ChC) using a linear regression program

SMILES	pKi
CC(C(=O)NO)N(Cc1ccc([N+](=O)[O-])cc1)S(=O)(=O)c1ccc([N+](=O)[O-])c(Cl)c1 (stereo not given) [2-[(3-Chloro-4-nitro-benzenesulfonyl)-(4-nitro-benzyl)-amino]-N-hydroxy-propionamide]	5.05
